Measurements: US11684614B2, “Formulations of hydroxypyridonate actinide/lanthanide decorporation agents” (priority 2017, dated 2023)

Test: 3,4,3-LI(1,2-HOPO)-excipient compatibility study (visual observation, HPLC purity and impurities on storage)
Format: physicochemical
Details: for 3L1O Purity / Total Impurities: n = 1
Method: The objective of the analytical study described in this report was to evaluate the interactions between 3,4,3-L1(1,2-HOPO) and selected pharmaceutical excipients under 25° C./60% RH and 40° C./75% RH conditions over eight weeks. Physical appearance and potency of the different samples were assessed at T=0, 2, 4, and 8 weeks through visual observations and high performance liquid chromatography (HPLC) analysis.
The stability of 3,4,3-L1(1,2-HOPO) was tested according to the conditions listed below in TABLE 1.1. A11 test samples were stored throughout the study in 40 mL clear USP Type 1 glass vials (28 mm OD×95 mm height; 24 mm screw cap), wrapped in aluminum foil.
• Test Samples: Each test mixture was prepared by weighing the desired quantity of 3,4,3-L1(1,2-HOPO) and excipient (both screened through sieve #40) into vials. Both ingredients were first mixed using a clean glass rod and then vortexed. At each time interval, one vial was withdrawn from each drug-excipient series along with the corresponding placebo preparation and tested as described below.
b. Sample Characterization • Visual Observation: For each sample solution, visual observation consisted in recording color and physical form.
c. Chromatographic Assay and Purity Assessment • Standard Stock Solutions: For each standard stock solutions, the test article was weighed (200 mg) and dissolved by sonication into 30 mL of diluent (water:acetonitrile=90%:10%). After equilibration at room temperature, the volume of the standard solution was adjusted to 50 mL. Standard stock solutions were prepared in duplicates, working standard solutions were prepared by dilution of each stock with the diluent to the desired concentrations. • Calibration Standards: With each experiment, 5 calibration standard solutions at different concentrations were prepared from stock solutions using the diluent. Concentrations of the calibration standards were between 1.6 and 2.4 mg/mL. […] The vials were then mechanically shaken for 15 minutes, followed by centrifugation of the sample solutions (10,000 rpm, 10 min), and the supernatants were used for the assay. • Placebo Preparation: 25 mL of diluent was added to each of the placebo vial. The vials were then mechanically shaken for 15 minutes, followed by centrifugation of the sample solutions (10,000 rpm, 10 min), and the supernatants were used for the assay. Analytical Method: Instrument: Waters Alliance 2695 liquid chromatography system Column: Agilent, Eclipse XDB-C18, 4.6×150 mm, 5 μm. Mobile Phase A: 0.05% formic acid in 95% H2O: 5% ACN Mobile Phase B: 0.05% formic acid in acetonitrile (ACN)
Column Temperature: 25° C. Flow Rate: 1.0 mL/min. Injection Volume: 10 μL Detection: 250 nm Run Time: 50 min Diluent: 9:1 H2O:ACN Analysis Sequence:
• Suitability Requirements: There should be no interference from the diluent/blank at the retention times of 3,4,3-L1(1,2-HOPO) peaks. The relative standard deviation (% RSD) for five replicate system suitability injections should be below 2.0%. The response factor of the second standard should be within 95-105%. The correlation coefficient (R2) of the system linearity standards should be higher than 0.990. 5. Results

With `O=C(NCCCN(CCCCN(CCCNC(=O)c1cccc(=O)n1O)C(=O)c1cccc(=O)n1O)C(=O)c1cccc(=O)n1O)c1cccc(=O)n1O` [3,4,3-L1(1,2-HOPO)] the “Stability of 3,4,3-L1(1,2-HOPO)” value (25° C./60% RH and 40° C./75% RH, over 8 weeks) was “stable over 8 weeks”, the “Unknown Impurity RRT 0.24” value (25° C./60% RH, 2 Weeks) was 0.03 % w/w and the “Unknown Impurity RRT 0.58” value (25° C./60% RH, 2 Weeks) was 0.05 % w/w. The “Unknown Impurity RRT 0.59” value (25° C./60% RH, 2 Weeks) was 0.05 % w/w, the “Unknown Impurity RRT 0.62” value (25° C./60% RH, 2 Weeks) was 0.05 % w/w and the “Unknown Impurity RRT 0.87” value (25° C./60% RH, 2 Weeks) was 0.12 % w/w. The “Unknown Impurity RRT 0.89” value (25° C./60% RH, 2 Weeks) was 0.03 % w/w, the “Unknown Impurity RRT 1.02” value (25° C./60% RH, 2 Weeks) was 0.08 % w/w and the “Unknown Impurity RRT 1.11” value (25° C./60% RH, 2 Weeks) was 0.05 % w/w. The “Unknown Impurity RRT 1.27” value (25° C./60% RH, 2 Weeks) was 0.36 % w/w, the “Unknown Impurity RRT 1.3” value (25° C./60% RH, 2 Weeks) was 0.22 % w/w and the “Unknown Impurity RRT 1.39” value (25° C./60% RH, 2 Weeks) was 0.07 % w/w. For the same compound, the “Unknown Impurity RRT 1.41” value (25° C./60% RH, 2 Weeks) was 0.03 % w/w, the “Unknown Impurity RRT 1.46” value (25° C./60% RH, 2 Weeks) was 0.08 % w/w and the “Unknown Impurity RRT 2.31” value (25° C./60% RH, 2 Weeks) was 0.05 % w/w. For the same compound, the “Unknown Impurity RRT 2.6” value (25° C./60% RH, 2 Weeks) was 0.04 % w/w, the “Unknown Impurity RRT 2.8” value (25° C./60% RH, 2 Weeks) was 0.03 % w/w and the “3L1O Purity” value (25° C./60% RH, 2 Weeks) was 98.67 % Area. The “Total Impurities” value (25° C./60% RH, 2 Weeks) was 1.33 % Area, the “Unknown Impurity RRT 0.24” value (25° C./60% RH, 4 weeks) was 0.03 % w/w and the “Unknown Impurity RRT 0.58” value (25° C./60% RH, 4 weeks) was 0.07 % w/w. The “Unknown Impurity RRT 0.6” value (25° C./60% RH, 4 weeks) was 0.05 % w/w, the “Unknown Impurity RRT 0.62” value (25° C./60% RH, 4 weeks) was 0.05 % w/w and the “Unknown Impurity RRT 0.87” value (25° C./60% RH, 4 weeks) was 0.14 % w/w. For the same compound, the “Unknown Impurity RRT 0.89” value (25° C./60% RH, 4 weeks) was 0.02 % w/w, the “Unknown Impurity RRT 1.03” value (25° C./60% RH, 4 weeks) was 0.04 % w/w and the “Unknown Impurity RRT 1.11” value (25° C./60% RH, 4 weeks) was 0.05 % w/w. For the same compound, the “Unknown Impurity RRT 1.27” value (25° C./60% RH, 4 weeks) was 0.28 % w/w, the “Unknown Impurity RRT 1.3” value (25° C./60% RH, 4 weeks) was 0.26 % w/w and the “Unknown Impurity RRT 1.39” value (25° C./60% RH, 4 weeks) was 0.07 % w/w. The “Unknown Impurity RRT 1.41” value (25° C./60% RH, 4 weeks) was 0.01 % w/w, the “Unknown Impurity RRT 1.46” value (25° C./60% RH, 4 weeks) was 0.09 % w/w and the “Unknown Impurity RRT 1.72” value (25° C./60% RH, 4 weeks) was 0.05 % w/w. The “Unknown Impurity RRT 2.3” value (25° C./60% RH, 4 weeks) was 0.05 % w/w, the “Unknown Impurity RRT 2.59” value (25° C./60% RH, 4 weeks) was 0.04 % w/w and the “Unknown Impurity RRT 2.79” value (25° C./60% RH, 4 weeks) was 0.03 % w/w. The “3L1O Purity” value (25° C./60% RH, 4 weeks) was 98.66 % Area, the “Total Impurities” value (25° C./60% RH, 4 weeks) was 1.34 % Area and the “Unknown Impurity RRT 0.24” value (25° C./60% RH, 8 Weeks) was 0.04 % w/w. The “Unknown Impurity RRT 0.58” value (25° C./60% RH, 8 Weeks) was 0.07 % w/w, the “Unknown Impurity RRT 0.59” value (25° C./60% RH, 8 Weeks) was 0.05 % w/w and the “Unknown Impurity RRT 0.62” value (25° C./60% RH, 8 Weeks) was 0.06 % w/w. For the same compound, the “Unknown Impurity RRT 0.87” value (25° C./60% RH, 8 Weeks) was 0.15 % w/w, the “Unknown Impurity RRT 0.89” value (25° C./60% RH, 8 Weeks) was 0.02 % w/w and the “Unknown Impurity RRT 1.03” value (25° C./60% RH, 8 Weeks) was 0.08 % w/w. The “Unknown Impurity RRT 1.11” value (25° C./60% RH, 8 Weeks) was 0.05 % w/w, the “Unknown Impurity RRT 1.27” value (25° C./60% RH, 8 Weeks) was 0.41 % w/w and the “Unknown Impurity RRT 1.3” value (25° C./60% RH, 8 Weeks) was 0.23 % w/w. For the same compound, the “Unknown Impurity RRT 1.39” value (25° C./60% RH, 8 Weeks) was 0.07 % w/w, the “Unknown Impurity RRT 1.41” value (25° C./60% RH, 8 Weeks) was 0.01 % w/w and the “Unknown Impurity RRT 1.46” value (25° C./60% RH, 8 Weeks) was 0.09 % w/w. For the same compound, the “Unknown Impurity RRT 1.73” value (25° C./60% RH, 8 Weeks) was 0.06 % w/w, the “Unknown Impurity RRT 2.31” value (25° C./60% RH, 8 Weeks) was 0.07 % w/w and the “Unknown Impurity RRT 2.6” value (25° C./60% RH, 8 Weeks) was 0.05 % w/w. The “Unknown Impurity RRT 2.8” value (25° C./60% RH, 8 Weeks) was 0.03 % w/w, the “3L1O Purity” value (25° C./60% RH, 8 Weeks) was 98.47 % Area and the “Total Impurities” value (25° C./60% RH, 8 Weeks) was 1.53 % Area. For the same compound, the “Unknown Impurity RRT 0.24” value (40° C./75% RH, 2 Weeks) was 0.06 % w/w, the “Unknown Impurity RRT 0.58” value (40° C./75% RH, 2 Weeks) was 0.07 % w/w and the “Unknown Impurity RRT 0.59” value (40° C./75% RH, 2 Weeks) was 0.06 % w/w. The “Unknown Impurity RRT 0.62” value (40° C./75% RH, 2 Weeks) was 0.06 % w/w, the “Unknown Impurity RRT 0.81” value (40° C./75% RH, 2 Weeks) was 0.02 % w/w and the “Unknown Impurity RRT 0.87” value (40° C./75% RH, 2 Weeks) was 0.13 % w/w. The “Unknown Impurity RRT 0.89” value (40° C./75% RH, 2 Weeks) was 0.07 % w/w, the “Unknown Impurity RRT 1.02” value (40° C./75% RH, 2 Weeks) was 0.07 % w/w and the “Unknown Impurity RRT 1.11” value (40° C./75% RH, 2 Weeks) was 0.06 % w/w.
